From ChEMBL document CHEMBL3526083, “Prediction of relative in vivo metabolite exposure from in vitro data using two model drugs: dextromethorphan and omeprazole” (Drug Metab Dispos, 2012)

Columns and labels:
Liver microsome [1] = experiment: Drug metabolism in human liver microsomes assessed as dextrophan-O-glucuronide formation measured as plasma fraction unbound; format: ADME, cell-free
Liver microsome [2] = experiment: Drug metabolism in human liver microsomes assessed as dextrophan-O-glucuronide formation measured as intrinsic unbound clearance; format: ADME
[3] = biological target: T1, UDP-glucuronosyltransferase 2B17 (Homo sapiens, UniProt O75795); experiment: Drug metabolism assessed as recombinat UGT2B17 (unknown origin) -mediated dextrophan-O-glucuronide formation; format: ADME
T1 sequence (O75795 whole entry): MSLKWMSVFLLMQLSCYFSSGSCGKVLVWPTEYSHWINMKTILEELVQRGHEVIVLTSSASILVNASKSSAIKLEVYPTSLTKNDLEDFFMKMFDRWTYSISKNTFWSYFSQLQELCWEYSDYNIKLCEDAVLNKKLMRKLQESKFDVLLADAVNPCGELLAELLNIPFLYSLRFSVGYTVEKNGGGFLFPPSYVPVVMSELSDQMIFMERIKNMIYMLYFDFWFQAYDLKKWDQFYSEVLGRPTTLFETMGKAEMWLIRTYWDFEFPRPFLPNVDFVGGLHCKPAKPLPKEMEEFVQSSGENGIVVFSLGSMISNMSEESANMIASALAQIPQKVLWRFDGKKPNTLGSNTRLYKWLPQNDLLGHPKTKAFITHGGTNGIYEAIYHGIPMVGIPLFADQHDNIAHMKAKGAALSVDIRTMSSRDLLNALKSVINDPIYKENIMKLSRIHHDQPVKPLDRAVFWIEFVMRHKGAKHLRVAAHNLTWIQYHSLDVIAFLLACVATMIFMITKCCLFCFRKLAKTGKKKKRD

[4] = biological target: T2, UDP-glucuronosyltransferase 2B7 (Homo sapiens, UniProt P16662); experiment: Drug metabolism assessed as recombinat UGT2B7 (unknown origin) -mediated dextrophan-O-glucuronide formation; format: ADME
T2 sequence (P16662 whole entry): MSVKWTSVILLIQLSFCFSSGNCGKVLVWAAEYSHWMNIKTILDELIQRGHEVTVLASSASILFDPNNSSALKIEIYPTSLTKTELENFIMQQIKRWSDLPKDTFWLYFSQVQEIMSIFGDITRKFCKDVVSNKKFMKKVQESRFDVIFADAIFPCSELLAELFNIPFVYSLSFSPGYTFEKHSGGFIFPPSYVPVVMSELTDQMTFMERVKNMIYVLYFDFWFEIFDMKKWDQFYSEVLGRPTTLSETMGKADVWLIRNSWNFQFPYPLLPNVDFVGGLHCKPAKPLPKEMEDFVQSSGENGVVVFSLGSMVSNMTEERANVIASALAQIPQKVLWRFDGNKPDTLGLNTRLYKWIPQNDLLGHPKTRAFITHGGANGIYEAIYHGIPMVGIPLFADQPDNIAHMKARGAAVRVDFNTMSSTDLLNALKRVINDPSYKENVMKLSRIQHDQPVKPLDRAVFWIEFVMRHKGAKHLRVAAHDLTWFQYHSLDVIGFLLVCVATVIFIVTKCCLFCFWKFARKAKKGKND

[5] = biological target: T3, UDP-glucuronosyltransferase 1A1 (Homo sapiens, UniProt P22309); experiment: Drug metabolism assessed as recombinat UGT1A1 (unknown origin) -mediated dextrophan-O-glucuronide formation; format: ADME
T3 sequence (P22309 whole entry): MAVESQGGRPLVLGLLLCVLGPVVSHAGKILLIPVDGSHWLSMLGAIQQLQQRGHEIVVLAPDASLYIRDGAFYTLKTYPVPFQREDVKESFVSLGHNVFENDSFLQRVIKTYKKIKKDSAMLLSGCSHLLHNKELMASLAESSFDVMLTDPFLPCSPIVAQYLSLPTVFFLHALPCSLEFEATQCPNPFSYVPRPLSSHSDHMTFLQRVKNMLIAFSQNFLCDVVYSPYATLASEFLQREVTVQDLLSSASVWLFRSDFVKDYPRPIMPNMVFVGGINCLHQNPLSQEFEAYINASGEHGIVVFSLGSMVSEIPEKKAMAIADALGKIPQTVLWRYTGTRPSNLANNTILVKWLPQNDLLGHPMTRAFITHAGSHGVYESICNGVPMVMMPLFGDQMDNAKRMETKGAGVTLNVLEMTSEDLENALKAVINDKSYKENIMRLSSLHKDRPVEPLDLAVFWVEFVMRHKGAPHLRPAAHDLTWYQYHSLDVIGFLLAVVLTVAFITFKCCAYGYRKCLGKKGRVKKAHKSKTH

[6] = biological target: T4, UDP-glucuronosyltransferase 1A6 (Homo sapiens, UniProt P19224); experiment: Drug metabolism assessed as recombinat UGT1A6 (unknown origin) -mediated dextrophan-O-glucuronide formation; format: ADME
T4 sequence (P19224 whole entry): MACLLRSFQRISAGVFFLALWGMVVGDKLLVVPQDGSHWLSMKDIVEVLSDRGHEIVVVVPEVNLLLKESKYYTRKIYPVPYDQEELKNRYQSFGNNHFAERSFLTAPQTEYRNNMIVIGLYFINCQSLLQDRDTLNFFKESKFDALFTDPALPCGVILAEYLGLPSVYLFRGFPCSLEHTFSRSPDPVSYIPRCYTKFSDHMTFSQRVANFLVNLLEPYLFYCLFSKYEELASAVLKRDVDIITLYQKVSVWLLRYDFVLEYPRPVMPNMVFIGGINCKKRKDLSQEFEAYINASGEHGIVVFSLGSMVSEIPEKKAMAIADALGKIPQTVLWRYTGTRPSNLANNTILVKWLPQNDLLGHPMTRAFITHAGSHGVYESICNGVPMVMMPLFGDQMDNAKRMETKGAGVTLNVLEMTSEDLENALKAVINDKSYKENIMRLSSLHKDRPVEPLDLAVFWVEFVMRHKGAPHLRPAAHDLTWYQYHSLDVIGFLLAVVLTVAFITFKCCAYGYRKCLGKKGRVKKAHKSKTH

Liver microsome [7] = experiment: Drug metabolism in human liver microsomes assessed as dextrophan-O-glucuronide formation measured as microsomal fraction unbound in presence of 2% BSA; format: ADME
Liver microsome [8] = experiment: Drug metabolism in human liver microsomes assessed as dextrophan-O-glucuronide formation; format: ADME
[9] = biological target: T5, UDP-glucuronosyltransferase 1A4 (Homo sapiens, UniProt P22310); experiment: Drug metabolism assessed as recombinat UGT1A4 (unknown origin) -mediated dextrophan-O-glucuronide formation; format: ADME
T5 sequence (P22310 whole entry): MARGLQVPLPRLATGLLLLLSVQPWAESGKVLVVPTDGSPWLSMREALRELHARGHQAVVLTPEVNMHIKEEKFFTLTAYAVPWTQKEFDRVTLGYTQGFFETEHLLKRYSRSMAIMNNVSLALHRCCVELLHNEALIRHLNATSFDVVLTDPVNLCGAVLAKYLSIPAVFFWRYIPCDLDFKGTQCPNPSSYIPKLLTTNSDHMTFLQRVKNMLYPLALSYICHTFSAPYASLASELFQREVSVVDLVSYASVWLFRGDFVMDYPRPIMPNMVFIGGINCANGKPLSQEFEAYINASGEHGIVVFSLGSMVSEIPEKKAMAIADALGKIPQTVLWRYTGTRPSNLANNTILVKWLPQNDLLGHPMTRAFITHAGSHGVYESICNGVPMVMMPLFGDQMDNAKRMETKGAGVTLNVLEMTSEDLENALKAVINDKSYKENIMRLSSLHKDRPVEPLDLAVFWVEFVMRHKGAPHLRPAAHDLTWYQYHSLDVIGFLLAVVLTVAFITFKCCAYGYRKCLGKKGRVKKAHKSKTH

## CN1CC[C@@]23CCCC[C@@H]2[C@@H]1Cc1ccc(O)cc13 [DEXTRORPHAN]
Liver microsome [1]
  Fu: 0.55
Liver microsome [2]
  CL free: 2.9 µL/min/mg
[3]
  Drug metabolism: metabolite_detected
[4]
  Drug metabolism: metabolite_detected
[5]
  Drug metabolism: metabolite_not_detected
[6]
  Drug metabolism: metabolite_not_detected
Liver microsome [7]
  Fu: 0.88
Liver microsome [8]
  Km: 690 µM
[9]
  Drug metabolism: metabolite_not_detected
